Experimental data published in US11504364B2, “Inhibitors of fibroblast activation protein” (Praxis Biotech LLC, priority 2018, dated 2022).

Tests used:
Format in all cases: biochemical
[1] = molecular target: recombinant human DPPIV (rhDPPIV) (Homo sapiens (Human), UniProt P27487); assay: DPPIV enzymatic activity assay; conditions: Table 3B
[2] = molecular target: recombinant human FAPα (rhFAPα) (Homo sapiens (Human), UniProt Q12884); assay: FAPα enzymatic exopeptidase (dipeptidase) activity assay, Z-Gly-Pro-AMC; conditions: for inhibition at 1 µM: 1 μM test compound, exopeptidase, Table 3B, read-out: rhFAPα (% exo inh @ 1 μM)
[3] = molecular target: recombinant human DPP9 (rhDPP9) (Homo sapiens (Human), UniProt Q86TI2); assay: Inhibition of DPP9 activity, 10 ng rhDPP9, H-Gly-Pro-AMC; conditions: Table 3B
Sequence of recombinant human DPP9 (rhDPP9) (Q86TI2 whole entry): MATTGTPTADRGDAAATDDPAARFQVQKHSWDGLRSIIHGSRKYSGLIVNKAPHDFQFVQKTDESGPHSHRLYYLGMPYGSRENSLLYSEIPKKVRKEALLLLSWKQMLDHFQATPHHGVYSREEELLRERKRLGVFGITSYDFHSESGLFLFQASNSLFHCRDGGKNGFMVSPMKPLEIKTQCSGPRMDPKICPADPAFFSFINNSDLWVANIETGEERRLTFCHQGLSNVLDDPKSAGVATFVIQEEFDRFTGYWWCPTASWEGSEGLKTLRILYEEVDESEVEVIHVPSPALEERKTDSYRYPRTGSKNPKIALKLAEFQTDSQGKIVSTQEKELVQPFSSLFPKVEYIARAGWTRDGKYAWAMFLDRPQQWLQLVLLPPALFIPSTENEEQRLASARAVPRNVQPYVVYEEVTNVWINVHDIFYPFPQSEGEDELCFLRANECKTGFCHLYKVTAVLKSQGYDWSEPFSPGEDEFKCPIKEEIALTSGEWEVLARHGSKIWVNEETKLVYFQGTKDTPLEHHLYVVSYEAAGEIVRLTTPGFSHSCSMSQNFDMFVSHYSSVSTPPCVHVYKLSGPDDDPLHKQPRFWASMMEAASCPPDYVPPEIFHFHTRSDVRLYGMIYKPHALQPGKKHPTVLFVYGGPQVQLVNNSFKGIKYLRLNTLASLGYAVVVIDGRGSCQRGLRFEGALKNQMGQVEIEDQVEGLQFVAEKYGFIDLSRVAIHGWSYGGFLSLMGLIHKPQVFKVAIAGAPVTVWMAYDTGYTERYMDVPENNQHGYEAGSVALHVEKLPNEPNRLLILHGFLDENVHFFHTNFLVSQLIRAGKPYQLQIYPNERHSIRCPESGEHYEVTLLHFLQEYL

Sequence of recombinant human DPPIV (rhDPPIV) (P27487 whole entry): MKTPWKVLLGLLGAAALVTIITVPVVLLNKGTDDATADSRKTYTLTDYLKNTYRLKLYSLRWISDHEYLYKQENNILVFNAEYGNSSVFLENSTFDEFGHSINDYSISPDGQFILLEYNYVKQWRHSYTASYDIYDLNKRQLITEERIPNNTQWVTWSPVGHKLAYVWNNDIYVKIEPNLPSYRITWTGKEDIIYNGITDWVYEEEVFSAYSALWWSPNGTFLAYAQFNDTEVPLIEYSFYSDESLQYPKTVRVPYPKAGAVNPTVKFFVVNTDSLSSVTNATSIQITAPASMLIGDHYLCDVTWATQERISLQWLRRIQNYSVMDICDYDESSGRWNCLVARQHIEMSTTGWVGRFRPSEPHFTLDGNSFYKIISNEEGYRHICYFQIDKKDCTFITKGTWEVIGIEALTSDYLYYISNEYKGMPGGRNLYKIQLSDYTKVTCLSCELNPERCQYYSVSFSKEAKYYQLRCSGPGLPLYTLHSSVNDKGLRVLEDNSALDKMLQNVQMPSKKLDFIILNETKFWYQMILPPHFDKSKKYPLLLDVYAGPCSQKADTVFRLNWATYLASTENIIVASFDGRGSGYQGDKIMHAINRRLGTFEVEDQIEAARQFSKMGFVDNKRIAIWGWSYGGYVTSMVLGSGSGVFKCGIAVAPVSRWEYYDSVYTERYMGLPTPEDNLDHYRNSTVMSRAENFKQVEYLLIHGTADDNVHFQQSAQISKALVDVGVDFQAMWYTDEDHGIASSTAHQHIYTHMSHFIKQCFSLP
Sequence of recombinant human FAPα (rhFAPα) (Q12884 whole entry): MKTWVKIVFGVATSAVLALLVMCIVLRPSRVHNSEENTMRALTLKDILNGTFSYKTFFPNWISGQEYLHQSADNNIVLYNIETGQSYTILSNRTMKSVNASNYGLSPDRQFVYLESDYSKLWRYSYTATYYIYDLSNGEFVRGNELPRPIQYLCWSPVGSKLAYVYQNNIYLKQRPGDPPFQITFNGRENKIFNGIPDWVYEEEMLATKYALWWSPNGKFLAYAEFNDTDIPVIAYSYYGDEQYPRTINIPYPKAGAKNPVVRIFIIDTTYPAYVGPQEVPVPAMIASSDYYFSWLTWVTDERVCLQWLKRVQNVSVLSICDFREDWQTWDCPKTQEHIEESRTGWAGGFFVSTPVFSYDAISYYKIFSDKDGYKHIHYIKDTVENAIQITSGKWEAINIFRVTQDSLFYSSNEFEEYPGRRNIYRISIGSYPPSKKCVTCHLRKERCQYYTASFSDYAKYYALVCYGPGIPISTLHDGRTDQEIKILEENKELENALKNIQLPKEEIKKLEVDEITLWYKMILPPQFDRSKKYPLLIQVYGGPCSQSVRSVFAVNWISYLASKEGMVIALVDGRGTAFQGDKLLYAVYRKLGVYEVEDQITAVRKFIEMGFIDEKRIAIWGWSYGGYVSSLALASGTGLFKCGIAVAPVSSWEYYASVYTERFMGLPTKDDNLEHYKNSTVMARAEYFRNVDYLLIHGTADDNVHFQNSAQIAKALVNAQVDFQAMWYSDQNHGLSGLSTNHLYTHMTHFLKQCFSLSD

| SMILES | IC50 [1] [µM] | inhibition at 1 µM [2] [%] | IC50 [3] [nM] | IC50 [2] [nM] |
| --- | --- | --- | --- | --- |
| N#C[C@@H]1CC(F)(F)CN1C(=O)CNC(=O)c1ccnc2ccc(-c3ccccc3)cc12 [Compound 1, (S)—N-(2-(2-cyano-4,4-difluoropyrrolidin-1-yl)-2-oxoethyl)-6-phenylquinoline-4-carboxamide] | > 10 | > 50 | – | – |
| Cc1noc(C)c1-c1ccc2nccc(C(=O)NCC(=O)N3CC(F)(F)C[C@H]3C#N)c2c1 [Compound 4, (S)—N-(2-(2-cyano-4,4-difluoropyrrolidin-1-yl)-2-oxoethyl)-6-(3,5-dimethylisoxazol-4-yl)quinoline-4-carboxamide] | > 10 | > 50 | – | – |
| N#C[C@@H]1CC(F)(F)CN1C(=O)CNC(=O)c1ccnc2ccc(-c3cccnc3)cc12 [Compound 5, (S)—N-(2-(2-cyano-4,4-difluoropyrrolidin-1-yl)-2-oxoethyl)-6-(pyridin-3-yl)quinoline-4-carboxamide] | > 10 | – | < 1000 | – |
| N#C[C@@H]1CC(F)(F)CN1C(=O)CNC(=O)c1ccnc2ccc(-c3ccncc3)cc12 [Compound 6, (S)—N-(2-(2-cyano-4,4-difluoropyrrolidin-1-yl)-2-oxoethyl)-6-(pyridin-4-yl)quinoline-4-carboxamide] | > 10 | – | < 1000 | – |
| CC(C)(C)c1ccc(-c2ccc3nccc(C(=O)NCC(=O)N4CC(F)(F)C[C@H]4C#N)c3c2)cc1 [Compound 7, (S)-6-(4-(tert-butyl)phenyl)-N-(2-(2-cyano-4,4-difluoropyrrolidin-1-yl)-2-oxoethyl)quinoline-4-carboxamide] | > 10 | – | < 1000 | – |
| Cn1ccc2cc(-c3ccc4nccc(C(=O)NCC(=O)N5CC(F)(F)C[C@H]5C#N)c4c3)ccc21 [Compound 8, (S)—N-(2-(2-cyano-4,4-difluoropyrrolidin-1-yl)-2-oxoethyl)-6-(1-methyl-1H-indol-5-yl)quinoline-4-carboxamide] | 1 to 10 | – | < 1000 | – |
| N#C[C@@H]1CC(F)(F)CN1C(=O)CNC(=O)c1ccnc2ccc(-c3ccc4[nH]ccc4c3)cc12 [Compound 9, (S)—N-(2-(2-cyano-4,4-difluoropyrrolidin-1-yl)-2-oxoethyl)-6-(1H-indol-5-yl)quinoline-4-carboxamide] | > 10 | – | < 1000 | – |
| Cn1cc(-c2ccc3nccc(C(=O)NCC(=O)N4CC(F)(F)C[C@H]4C#N)c3c2)cn1 [Compound 10, (S)—N-(2-(2-cyano-4,4-difluoropyrrolidin-1-yl)-2-oxoethyl)-6-(1-methyl-1H-pyrazol-4-yl)quinoline-4-carboxamide] | > 10 | – | < 1000 | – |
| N#C[C@@H]1CC(F)(F)CN1C(=O)CNC(=O)c1ccnc2ccc(-c3cnn(C4CC4)c3)cc12 [Compound 11, (S)—N-(2-(2-cyano-4,4-difluoropyrrolidin-1-yl)-2-oxoethyl)-6-(1-cyclopropyl-1H-pyrazol-4-yl)quinoline-4-carboxamide] | 1 to 10 | – | < 1000 | – |
| N#C[C@@H]1CC(F)(F)CN1C(=O)CNC(=O)c1ccnc2ccc(-c3ccc4c(c3)CCN4)cc12 [Compound 12, (S)—N-(2-(2-cyano-4,4-difluoropyrrolidin-1-yl)-2-oxoethyl)-6-(indolin-5-yl)quinoline-4-carboxamide] | > 10 | – | < 1000 | – |
| CC(C)C/C=C/c1ccc2nccc(C(=O)NCC(=O)N3CC(F)(F)C[C@H]3C#N)c2c1 [Compound 13, (S,E)-N-(2-(2-cyano-4,4-difluoropyrrolidin-1-yl)-2-oxoethyl)-6-(4-methylpent-1-en-1-yl)quinoline-4-carboxamide] | > 10 | – | < 1000 | – |
| N#C[C@@H]1CC(F)(F)CN1C(=O)CNC(=O)c1ccnc2ccc(/C=C/c3ccccc3)cc12 [Compound 14, (S,E)-N-(2-(2-cyano-4,4-difluoropyrrolidin-1-yl)-2-oxoethyl)-6-styrylquinoline-4-carboxamide] | > 10 | – | < 1000 | – |
| CN(C)c1ccc2cc(-c3ccc4nccc(C(=O)NCC(=O)N5CC(F)(F)C[C@H]5C#N)c4c3)ccc2c1 [Compound 15, (S)—N-(2-(2-cyano-4,4-difluoropyrrolidin-1-yl)-2-oxoethyl)-6-(6-(dimethylamino)naphthalen-2-yl)quinoline-4-carboxamide] | > 10 | – | < 1000 | – |
| N#C[C@@H]1CC(F)(F)CN1C(=O)CNC(=O)c1ccnc2ccc(-c3ccc(=O)[nH]c3)cc12 [Compound 17, (S)—N-(2-(2-cyano-4,4-difluoropyrrolidin-1-yl)-2-oxoethyl)-6-(6-oxo-1,6-dihydropyridin-3-yl)quinoline-4-carboxamide] | > 10 | – | < 1000 | – |
| N#C[C@@H]1CC(F)(F)CN1C(=O)CNC(=O)c1ccnc2ccc(-c3ccc4c(c3)CCNC4=O)cc12 [Compound 18, (S)—N-(2-(2-cyano-4,4-difluoropyrrolidin-1-yl)-2-oxoethyl)-6-(1-oxo-1,2,3,4-tetrahydroisoquinolin-6-yl)quinoline-4-carboxamide] | < 1 | – | < 1000 | – |
| N#C[C@@H]1CC(F)(F)CN1C(=O)CNC(=O)c1ccnc2ccc(/C=C/c3ccccn3)cc12 [Compound 21] | > 10 | – | < 1000 | – |
| COC(=O)/C=C/c1ccc2nccc(C(=O)NCC(=O)N3CC(F)(F)C[C@H]3C#N)c2c1 [Compound 22] | > 10 | – | < 1000 | – |
| Cc1ccc(-c2ccc3nccc(C(=O)NCC(=O)N4CC(F)(F)C[C@H]4C#N)c3c2)cn1 [Compound 23] | – | > 50 | < 1000 | < 1000 |
| N#C[C@@H]1CC(F)(F)CN1C(=O)CNC(=O)c1ccnc2ccc(-c3ccc4c(c3)OCCO4)cc12 [Compound 24] | – | > 50 | < 1000 | < 1000 |
| N#C[C@@H]1CC(F)(F)CN1C(=O)CNC(=O)c1ccnc2ccc(-c3ccc(C4CC4)nc3)cc12 [Compound 25] | – | > 50 | < 1000 | < 1000 |
| N#C[C@@H]1CC(F)(F)CN1C(=O)CNC(=O)c1ccnc2ccc(-c3ccc(OC(F)(F)F)cc3)cc12 [Compound 31] | > 10 | – | < 1000 | – |

| SMILES | IC50 [1] [µM] | inhibition at 1 µM [2] [%] | IC50 [3] [nM] | IC50 [2] [nM] |
| --- | --- | --- | --- | --- |
| CN1CCN(Cc2ccc(-c3ccc4nccc(C(=O)NCC(=O)N5CC(F)(F)C[C@H]5C#N)c4c3)cc2)CC1 [Compound 32] | > 10 | > 50 | – | – |
| COc1ccc(-c2ccc3nccc(C(=O)NCC(=O)N4CC(F)(F)C[C@H]4C#N)c3c2)cn1 [Compound 33] | – | > 50 | < 1000 | < 1000 |
| CC(C)Oc1ccc(-c2ccc3nccc(C(=O)NCC(=O)N4CC(F)(F)C[C@H]4C#N)c3c2)cn1 [Compound 34] | – | > 50 | < 1000 | < 1000 |
| COCCOc1ccc(-c2ccc3nccc(C(=O)NCC(=O)N4CC(F)(F)C[C@H]4C#N)c3c2)cc1 [Compound 35] | – | > 50 | < 1000 | < 1000 |
| COCCOc1ccc(-c2ccc3nccc(C(=O)NCC(=O)N4CC(F)(F)C[C@H]4C#N)c3c2)cn1 [Compound 36] | > 10 | – | < 1000 | – |
| N#C[C@@H]1CC(F)(F)CN1C(=O)CNC(=O)c1ccnc2ccc(/C=C/c3ccc4c(c3)CCC(=O)N4)cc12 [Compound 37] | – | > 50 | < 1000 | < 1000 |
| CC(=O)Nc1ccc(-c2ccc3nccc(C(=O)NCC(=O)N4CC(F)(F)C[C@H]4C#N)c3c2)cc1 [Compound 97] | > 10 | – | < 1000 | – |
| CC(=O)Nc1cccc(-c2ccc3nccc(C(=O)NCC(=O)N4CC(F)(F)C[C@H]4C#N)c3c2)c1 [Compound 98] | > 10 | – | < 1000 | – |
| CC(=O)Nc1ccccc1-c1ccc2nccc(C(=O)NCC(=O)N3CC(F)(F)C[C@H]3C#N)c2c1 [Compound 99] | > 10 | > 50 | – | – |
| CNC(=O)c1ccc(-c2ccc3nccc(C(=O)NCC(=O)N4CC(F)(F)C[C@H]4C#N)c3c2)cc1 [Compound 100] | > 10 | – | < 1000 | – |
| N#C[C@@H]1CC(F)(F)CN1C(=O)CNC(=O)c1ccnc2ccc(-c3ccc4[nH]ncc4c3)cc12 [Compound 101] | – | > 50 | < 1000 | < 1000 |
| CNC(=O)c1cccc(-c2ccc3nccc(C(=O)NCC(=O)N4CC(F)(F)C[C@H]4C#N)c3c2)c1 [Compound 102] | > 10 | – | < 1000 | – |
| N#C[C@@H]1CC(F)(F)CN1C(=O)CNC(=O)c1ccnc2ccc(-c3c[nH]c4ccccc34)cc12 [Compound 103] | – | > 50 | < 1000 | < 1000 |
| N#C[C@@H]1CC(F)(F)CN1C(=O)CNC(=O)c1ccnc2ccc(-c3ccc4c(c3)CNC4=O)cc12 [Compound 104] | < 1 | – | < 1000 | – |
| N#C[C@@H]1CC(F)(F)CN1C(=O)CNC(=O)c1ccnc2ccc(/C=C/c3ccc4ncccc4c3)cc12 [Compound 105] | – | > 50 | – | – |
| N#C[C@@H]1CC(F)(F)CN1C(=O)CNC(=O)c1ccnc2ccc(-c3ccc4c(c3)CC(=O)N4)cc12 [Compound 106] | – | > 50 | < 1000 | < 1000 |
| N#C[C@@H]1CC(F)(F)CN1C(=O)CNC(=O)c1ccnc2ccc(-c3cccc4c3CCC(=O)N4)cc12 [Compound 108] | > 10 | – | < 1000 | – |
| N#C[C@@H]1CC(F)(F)CN1C(=O)CNC(=O)c1ccnc2ccc(-c3cccc4c3CCNC4=O)cc12 [Compound 109] | > 10 | – | < 1000 | – |
| N#C[C@@H]1CC(F)(F)CN1C(=O)CNC(=O)c1ccnc2ccc(-c3ccc4c(c3)CCNC4)cc12 [Compound 114] | > 10 | > 50 | – | – |
| N#C[C@@H]1CC(F)(F)CN1C(=O)CNC(=O)c1ccnc2ccc(/C=C/c3ccc4c(c3)CCN4)cc12 [Compound 115] | > 10 | – | < 1000 | – |
| CNC(=O)c1ccc(-c2ccc3nccc(C(=O)NCC(=O)N4CC(F)(F)C[C@H]4C#N)c3c2)cc1F [Compound 116] | > 10 | – | < 1000 | – |
